# Several values for one entry are separate records, joined by “and”; a condition that tells them apart may be missing. Identical values can stand only once. Like-named read-outs stand apart in the source and are kept apart here.
# Columns and labels:
# [1] = tested on: intraocular pressure of rabbits showing normal baseline intraocular pressure; test: Intraocular pressure in rabbits with normal intraocular pressure after topical instillation; format: in vivo, rabbit (Vienna Blue, pigmented)
# [2] = tested on: intraocular pressure of rabbits with ocular hypertension; test: Intraocular pressure in rabbits with ocular hypertension induced by α-chymotrypsin; format: in vivo, rabbit (Vienna Blue, pigmented)
# [3] = tested on: cornea (corneal thickness)
# intraocular pressure [4] = conditions: general statement on the literature; cited from earlier work
# intraocular pressure [5] = conditions: cited from earlier work
# [6] = 50 μl eye-drops, 0.050% flunarizine, equimolar comparators, 0.5% timolol
structure (smiles),measurement,setting,value
COc1ccc(CCN(C)CCCC(C#N)(c2ccc(OC)c(OC)c2)C(C)C)cc1OC (centres unmarked) [verapamil],"Effect on intraocular pressure in rabbits with normal pressure, in words",[1]; [6],"neither the verapamil formulation nor the diltiazem formulation, both using the same vehicle as MEG 01, did produce any intraocular pressure decrease"
same,"Intraocular pressure (mmHg) at the time (min): 30, average ± S.D.","[1]; Table 1, average ± S.D. of 4 rabbits, 30 min after instillation, 50 μl eye-drops: 0.050% flunarizine, 0.056% verapamil, 0.051% diltiazem, 0.043% nifedipine",15 ± 1.3 mmHg
same,"Intraocular pressure (mmHg) at the time (min): 60, average ± S.D.","[1]; Table 1, average ± S.D. of 4 rabbits, 60 min after instillation, 50 μl eye-drops: 0.050% flunarizine, 0.056% verapamil, 0.051% diltiazem, 0.043% nifedipine",14.7 ± 0.5 mmHg
same,"Intraocular pressure (mmHg) at the time (min): 90, average ± S.D.","[1]; Table 1, average ± S.D. of 4 rabbits, 90 min after instillation, 50 μl eye-drops: 0.050% flunarizine, 0.056% verapamil, 0.051% diltiazem, 0.043% nifedipine",14 ± 1.0 mmHg
same,"Intraocular pressure (mmHg) at the time (min): 120, average ± S.D.","[1]; Table 1, average ± S.D. of 4 rabbits, 120 min after instillation, 50 μl eye-drops: 0.050% flunarizine, 0.056% verapamil, 0.051% diltiazem, 0.043% nifedipine",15.7 ± 0.5 mmHg
same,"Intraocular pressure (mmHg) at the time (min): 180, average ± S.D.","[1]; Table 1, average ± S.D. of 4 rabbits, 180 min after instillation, 50 μl eye-drops: 0.050% flunarizine, 0.056% verapamil, 0.051% diltiazem, 0.043% nifedipine",16.2 ± 0.5 mmHg
same,"Intraocular pressure (mmHg) at the time (min): 240, average ± S.D.","[1]; Table 1, average ± S.D. of 4 rabbits, 240 min after instillation, 50 μl eye-drops: 0.050% flunarizine, 0.056% verapamil, 0.051% diltiazem, 0.043% nifedipine",16.5 ± 1.0 mmHg
same,"Intraocular pressure (mmHg) at the time (min): 0, average ± S.D.","[1]; Table 1, average ± S.D. of 4 rabbits, time 0 = 15 min before instillation (baseline), 50 μl eye-drops: 0.050% flunarizine, 0.056% verapamil, 0.051% diltiazem, 0.043% nifedipine",16 ± 0.8 mmHg
same,Intraocular pressure (mmHg) at the time (min): 30,"[1]; Table 1, individual rabbit, right eye, 30 min after instillation, 50 μl eye-drops: 0.050% flunarizine, 0.056% verapamil, 0.051% diltiazem, 0.043% nifedipine",16 mmHg and 14 mmHg and 17 mmHg and 15 mmHg
same,Intraocular pressure (mmHg) at the time (min): 60,"[1]; Table 1, individual rabbit, right eye, 60 min after instillation, 50 μl eye-drops: 0.050% flunarizine, 0.056% verapamil, 0.051% diltiazem, 0.043% nifedipine",15 mmHg (3×) and 14 mmHg
same,Intraocular pressure (mmHg) at the time (min): 90,"[1]; Table 1, individual rabbit, right eye, 90 min after instillation, 50 μl eye-drops: 0.050% flunarizine, 0.056% verapamil, 0.051% diltiazem, 0.043% nifedipine",15 mmHg (3×) and 13 mmHg
same,Intraocular pressure (mmHg) at the time (min): 120,"[1]; Table 1, individual rabbit, right eye, 120 min after instillation, 50 μl eye-drops: 0.050% flunarizine, 0.056% verapamil, 0.051% diltiazem, 0.043% nifedipine",16 mmHg (3×) and 13 mmHg
same,Intraocular pressure (mmHg) at the time (min): 180,"[1]; Table 1, individual rabbit, right eye, 180 min after instillation, 50 μl eye-drops: 0.050% flunarizine, 0.056% verapamil, 0.051% diltiazem, 0.043% nifedipine",16 mmHg (3×) and 17 mmHg
same,Intraocular pressure (mmHg) at the time (min): 240,"[1]; Table 1, individual rabbit, right eye, 240 min after instillation, 50 μl eye-drops: 0.050% flunarizine, 0.056% verapamil, 0.051% diltiazem, 0.043% nifedipine",17 mmHg (3×) and 15 mmHg
same,Intraocular pressure (mmHg) at the time (min): 0,"[1]; Table 1, individual rabbit, right eye, time 0 = 15 min before instillation (baseline), 50 μl eye-drops: 0.050% flunarizine, 0.056% verapamil, 0.051% diltiazem, 0.043% nifedipine",17 mmHg and 15 mmHg and 16 mmHg (2×)
same,"Effect on intraocular pressure in rabbits with ocular hypertension, in words",[2]; [6],do not show any significant reduction
same,"Intraocular pressure (mmHg) at the time (min): 30, average ± S.D.","[2]; Table 3, hypertensive rabbits, average ± S.D. of 4 rabbits, 30 min after instillation, 50 μl eye-drops: 0.050% flunarizine, 0.056% verapamil, 0.051% diltiazem, 0.043% nifedipine",48.7 ± 6.5 mmHg
same,"Intraocular pressure (mmHg) at the time (min): 60, average ± S.D.","[2]; Table 3, hypertensive rabbits, average ± S.D. of 4 rabbits, 60 min after instillation, 50 μl eye-drops: 0.050% flunarizine, 0.056% verapamil, 0.051% diltiazem, 0.043% nifedipine",50.0 ± 5.47 mmHg
same,"Intraocular pressure (mmHg) at the time (min): 90, average ± S.D.","[2]; Table 3, hypertensive rabbits, average ± S.D. of 4 rabbits, 90 min after instillation, 50 μl eye-drops: 0.050% flunarizine, 0.056% verapamil, 0.051% diltiazem, 0.043% nifedipine",48.0 ± 5.94 mmHg
same,"Intraocular pressure (mmHg) at the time (min): 120, average ± S.D.","[2]; Table 3, hypertensive rabbits, average ± S.D. of 4 rabbits, 120 min after instillation, 50 μl eye-drops: 0.050% flunarizine, 0.056% verapamil, 0.051% diltiazem, 0.043% nifedipine",48.5 ± 5.97 mmHg
same,"Intraocular pressure (mmHg) at the time (min): 180, average ± S.D.","[2]; Table 3, hypertensive rabbits, average ± S.D. of 4 rabbits, 180 min after instillation, 50 μl eye-drops: 0.050% flunarizine, 0.056% verapamil, 0.051% diltiazem, 0.043% nifedipine",48.75 ± 6.39 mmHg
same,"Intraocular pressure (mmHg) at the time (min): 240, average ± S.D.","[2]; Table 3, hypertensive rabbits, average ± S.D. of 4 rabbits, 240 min after instillation, 50 μl eye-drops: 0.050% flunarizine, 0.056% verapamil, 0.051% diltiazem, 0.043% nifedipine",49.5 ± 5.44 mmHg
same,"Intraocular pressure (mmHg) at the time (min): 0, average ± S.D.","[2]; Table 3, hypertensive rabbits, average ± S.D. of 4 rabbits, time 0 = 15 min before instillation (baseline), 50 μl eye-drops: 0.050% flunarizine, 0.056% verapamil, 0.051% diltiazem, 0.043% nifedipine",49.0 ± 5.94 mmHg
same,Intraocular pressure (mmHg) at the time (min): 30,"[2]; Table 3, hypertensive rabbits, individual rabbit, right eye, 30 min after instillation, 50 μl eye-drops: 0.050% flunarizine, 0.056% verapamil, 0.051% diltiazem, 0.043% nifedipine",55 mmHg and 48 mmHg and 40 mmHg and 52 mmHg
same,Intraocular pressure (mmHg) at the time (min): 60,"[2]; Table 3, hypertensive rabbits, individual rabbit, right eye, 60 min after instillation, 50 μl eye-drops: 0.050% flunarizine, 0.056% verapamil, 0.051% diltiazem, 0.043% nifedipine",56 mmHg and 49 mmHg and 43 mmHg and 52 mmHg
same,Intraocular pressure (mmHg) at the time (min): 90,"[2]; Table 3, hypertensive rabbits, individual rabbit, right eye, 90 min after instillation, 50 μl eye-drops: 0.050% flunarizine, 0.056% verapamil, 0.051% diltiazem, 0.043% nifedipine",55 mmHg and 46 mmHg and 41 mmHg and 50 mmHg
same,Intraocular pressure (mmHg) at the time (min): 120,"[2]; Table 3, hypertensive rabbits, individual rabbit, right eye, 120 min after instillation, 50 μl eye-drops: 0.050% flunarizine, 0.056% verapamil, 0.051% diltiazem, 0.043% nifedipine",55 mmHg and 47 mmHg and 41 mmHg and 51 mmHg
same,Intraocular pressure (mmHg) at the time (min): 180,"[2]; Table 3, hypertensive rabbits, individual rabbit, right eye, 180 min after instillation, 50 μl eye-drops: 0.050% flunarizine, 0.056% verapamil, 0.051% diltiazem, 0.043% nifedipine",57 mmHg and 46 mmHg and 42 mmHg and 50 mmHg
same,Intraocular pressure (mmHg) at the time (min): 240,"[2]; Table 3, hypertensive rabbits, individual rabbit, right eye, 240 min after instillation, 50 μl eye-drops: 0.050% flunarizine, 0.056% verapamil, 0.051% diltiazem, 0.043% nifedipine",56 mmHg and 48 mmHg and 43 mmHg and 51 mmHg
same,Intraocular pressure (mmHg) at the time (min): 0,"[2]; Table 3, hypertensive rabbits, individual rabbit, right eye, time 0 = 15 min before instillation (baseline), 50 μl eye-drops: 0.050% flunarizine, 0.056% verapamil, 0.051% diltiazem, 0.043% nifedipine",56 mmHg and 47 mmHg and 42 mmHg and 51 mmHg
same,Corneal thickness (mm): 1 hour,"[3]; individual rabbit, treated right eye (RE), 1 hour after single 50 μl instillation, 0.050% flunarizine, 0.056% verapamil, 0.051% diltiazem, 0.043% nifedipine",0.376 mm and 0.398 mm and 0.387 mm and 0.401 mm
same,Corneal thickness (mm): 2 hours,"[3]; individual rabbit, treated right eye (RE), 2 hours after single 50 μl instillation, 0.050% flunarizine, 0.056% verapamil, 0.051% diltiazem, 0.043% nifedipine",0.385 mm and 0.406 mm and 0.400 mm and 0.494 mm
same,Corneal thickness (mm): 3 hours,"[3]; individual rabbit, treated right eye (RE), 3 hours after single 50 μl instillation, 0.050% flunarizine, 0.056% verapamil, 0.051% diltiazem, 0.043% nifedipine",0.383 mm and 0.402 mm (2×) and 0.410 mm
same,Corneal thickness (mm): Baseline,"[3]; individual rabbit, treated right eye (RE), before single 50 μl instillation, 0.050% flunarizine, 0.056% verapamil, 0.051% diltiazem, 0.043% nifedipine",0.356 mm and 0.384 mm and 0.372 mm and 0.392 mm
same,Increase in corneal thickness,[3]; ophthalmic solution containing 0.056% verapamil,15-20 μm/hour
same,"Corneal swelling / alteration of corneal thickness, in words","[3]; single 50 μl instillation, observed up to 3 hours",caused comeal swelling
same,Intraocular pressure after administration to man,intraocular pressure [4],reduction of the intraocular pressure
same,Intraocular pressure after oral administration to rabbits,intraocular pressure [5]; Beatty et al. 1984,did not evidence any effect
same,Intraocular pressure after topical administration to rabbits,intraocular pressure [5]; Beatty et al. 1984,increase in the intraocular pressure
same,Intraocular pressure after systemic administration to rabbits,intraocular pressure [5]; Payene et al. 1990,reduction in the intraocular pressure
same,Intraocular pressure after topical administration to rabbits,intraocular pressure [5]; Payene et al. 1990,did not detect any significant effect

# Source: US6380198B1 (Laboratoire Medidom S.A., priority 1997, dated 2002)
